As a reminder, the IC50 is the concentration that inhibits the measured activity by half.

The structures appear in SMILES notation. Where two headings read alike, the source gives them in different places.

Experimental findings from patent publication US12435087B2, “Modulators of DCN-1 and methods of use thereof” (Cellarity, Inc., priority 2023, dated 2025) are described below.

The assay addresses DCN1 (DCUND1) protein PONY domain (Homo sapiens (Human), UniProt Q96GG9). Briefly: TR-FRET assay (binding to DCN-1, displacement of FAM-labeled probe). Put shortly:
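Compounds read at 1, 5 and 24 h, 0.1% final DMSO, by TR-FRET between terbium-streptavidin on biotinylated DCN1 PONY domain (E. coli) and a FAM-tagged non-covalent inhibitor probe. Two setups used, 5 nM protein with 20 nM labelled probe, or 0.31 nM protein with 100 nM labelled plus 800 nM unlabelled probe; buffer had TritonX and 200 mM NaCl. % activity relative to high (with probe) and low (without probe) controls.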

[1] abbreviates: 24 hr after treatment with compound, read-out: TR FRET IC50 24 hr.
The mark [2] stands for this setting: TR FRET IC50 1 hr (nM), 1 hr after treatment with compound.
The mark [3] stands for this setting: read-out: TR FRET IC50 1 hr, 1 hr after treatment with compound.

DCN1 (DCUND1) protein PONY domain, sequence (Q96GG9 60-248): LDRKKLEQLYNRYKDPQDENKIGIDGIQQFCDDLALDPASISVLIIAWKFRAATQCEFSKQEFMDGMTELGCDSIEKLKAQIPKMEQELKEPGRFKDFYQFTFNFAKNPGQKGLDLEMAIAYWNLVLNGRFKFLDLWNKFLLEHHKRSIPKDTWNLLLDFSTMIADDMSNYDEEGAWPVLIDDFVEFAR

In the case of `CCN1C(=O)[C@@H](NC(=O)c2cccc(C(F)(F)F)c2)[C@H](c2cccc(CNC(=O)C3=C(C(=O)OC)CCC3)c2)c2cnn(-c3ccccc3)c21` [Compound I-108], the IC50 lay in the range of 1000 to 3000 nM under setting [1] and 1000 to 3000 nM under setting [2].
In the case of `CCN1C(=O)[C@@H](NC(=O)c2cccc(C(F)(F)F)c2)[C@H](c2cccc(NC(=O)C3=CCC3)c2)c2c(C)nn(-c3ccccc3)c21` [Compound I-70, N-((4R,5S)-4-(3-(cyclobut-1-ene-1-carboxamido)phenyl)-7-ethyl-3-methyl-6-oxo-1-phenyl-4,5,6,7-tetrahydro-1H-pyrazolo[3,4-b]pyridin-5-yl)-3-(trifluoromethyl)benzamide], the IC50 under setting [1] fell in the range of 200 to 1000 nM and the IC50 under setting [2] lay in the range of 1000 to 3000 nM.
In the case of `C=C(C(=O)NCc1cccc([C@@H]2c3cnn(-c4ccccc4)c3N(CC)C(=O)[C@H]2NC(=O)c2ccn(C3CC3)n2)c1)C(C)N1CCC12COC2` (some centres unmarked) [Compound I-325], the IC50 under setting [2] lay in the range of 200 to 1000 nM.
On to `CCN1C(=O)[C@@H](NC(=O)c2nccc(C(F)(F)F)n2)[C@H](c2cccc(NC(=O)/C=C/C(=O)N(C)C)c2)c2c(C)nn(-c3ccccc3)c21` [Compound I-245], for which the IC50 is, setting by setting: under setting [1], 1000 to 3000 nM; under setting [2], 1000 to 3000 nM.
As for `C=C(CN1CC2CCC(C1)O2)C(=O)NCc1cccc([C@@H]2c3cnn(-c4ccccc4)c3N(CC)C(=O)[C@H]2NC(=O)c2cccc(C(F)(F)F)c2)c1` [Compound I-136], the concentration for half-maximal inhibition (IC50) was at most 200 nM under setting [1] and at most 200 nM under setting [3].
Regarding `CCN1C(=O)[C@@H](NC(=O)c2cccc(C(F)(F)F)c2)[C@@H](c2cc(F)cc(NC(=O)/C=C/CN(C)C)c2)c2cnn(-c3ccccc3)c21` (racemic) [Compound I-85], the IC50 under setting [1] fell in the range of 1000 to 3000 nM and the IC50 under setting [2] was in the range of 1000 to 3000 nM.
Turning to `C=C(CN1CC2CC(C1)O2)C(=O)NCc1cccc([C@@H]2c3cnn(-c4ccccc4)c3N(CC)C(=O)[C@H]2NC(=O)c2nccc(C(F)(F)F)n2)c1` [Compound I-346], the IC50 by setting is: under setting [1], at most 200 nM; under setting [3], at most 200 nM.
In the case of `CCN1C(=O)[C@@H](NC(=O)c2cccc(C(F)(F)F)c2)[C@H](c2cccc(CNC/C=C/C(=O)N(C)C)c2)c2cnn(-c3ccccc3)c21` [Compound I-372], the IC50 is, setting by setting: under setting [1], 200 to 1000 nM; under setting [2], 1000 to 3000 nM.
Turning to `C=C(CN1CCC12COC2)C(=O)NCc1cccc([C@@H]2c3cnn(-c4ccccc4)c3N(CC)C(=O)[C@H]2NC(=O)c2ccn(C(F)(F)F)n2)c1` [Compound I-247], the IC50 is at most 200 nM under setting [1] and 200 to 1000 nM under setting [2].
`CCN1C(=O)[C@@H](NC(=O)c2cccc(C(F)(F)F)c2)[C@H](c2cccc(CNC/C=C/C(=O)N3CCCC3)c2)c2cnn(-c3ccccc3)c21` [Compound I-307]: the IC50 is 1000 to 3000 nM under setting [1] and 1000 to 3000 nM under setting [2].
In the case of `CCN1C(=O)[C@@H](NC(=O)c2nccc(C(F)(F)F)n2)[C@H](c2cccc(NC(=O)C3=CCC3)n2)c2cnn(-c3ccccc3)c21` (racemic) [Compound I-279], the IC50 runs as follows: under setting [1], 1000 to 3000 nM; under setting [2], 1000 to 3000 nM.
In the case of `CCN1C(=O)[C@@H](NC(=O)c2nccc(C(F)(F)F)n2)[C@H](c2cccc(NC(=O)/C=C/C(=O)N3CCCC3)c2)c2c(C)nn(-c3ccccc3)c21` (racemic) [Compound I-262], the half-inhibitory concentration (IC50) reads like this: under setting [1], 1000 to 3000 nM; under setting [2], 1000 to 3000 nM.
Take `C=C(CN1CCN(C2COC2)CC1)C(=O)NCc1cccc([C@@H]2c3c(C)nn(-c4ccccc4)c3N(CC)C(=O)[C@H]2NC(=O)c2cccc(C(F)(F)F)c2)c1` [Compound I-353]: the IC50 is at most 200 nM under setting [1] and at most 200 nM under setting [3].
With `C=C(CN1CCN(C2COC2)CC1)C(=O)NCc1cccc([C@@H]2c3cnn(-c4ccccc4)c3N(CC)C(=O)[C@H]2NC(=O)c2ccn(C(F)(F)F)n2)c1` [Compound I-356], the IC50 reads like this: under setting [1], at most 200 nM; under setting [3], at most 200 nM.
Take `C/C=C(\CN(C)C1COC1)C(=O)NCc1cccc([C@@H]2c3cnn(-c4ccccc4)c3N(CC)C(=O)[C@H]2NC(=O)c2nccc(C(F)(F)F)n2)c1` [Compound I-322]: the IC50 is at most 200 nM under setting [1] and 1000 to 3000 nM under setting [2].
For the molecule `CCN1C(=O)[C@@H](NC(=O)c2cccc(C(F)(F)F)c2)[C@H](c2ccccc2CNC#N)c2cnn(-c3ccccc3)c21` (racemic) [Compound I-31], the IC50 reads like this: under setting [1], 1000 to 3000 nM; under setting [2], 1000 to 3000 nM.
Turning to `CCN1C(=O)[C@@H](NC(=O)c2cccc(C(F)(F)F)c2)[C@H](c2ccccc2CNC(=O)C(F)Cl)c2cnn(-c3ccccc3)c21` (mixture of isomers) [Compound I-105], the IC50 lay in the range of 1000 to 3000 nM under setting [1] and 1000 to 3000 nM under setting [2].
Regarding `CCN1C(=O)[C@H](NC(=O)c2cccc(C(F)(F)F)c2)[C@@H](c2cccc(NC(=O)/C=C/CN(C)C)c2)c2c(CO)nn(-c3ccccc3)c21` (racemic) [Compound I-213, ˜{N}—[˜{rac}-(4˜{S},5˜{R})-7-ethyl-3-(hydroxymethyl)-6-oxo-1-phenyl-4-[3-[[˜{rac}-(˜{E})-4-(dimethylamino)but-2-enoyl]amino]phenyl]-4,5-dihydropyrazolo[3,4-b]pyridin-5-yl]-3-(trifluoromethyl)benzamide], the IC50 reads like this: under setting [1], 200 to 1000 nM; under setting [2], 1000 to 3000 nM.
The corresponding values for `CCN1C(=O)[C@@H](NC(=O)c2cccc(C(F)(F)F)c2)[C@@H](c2cc(NC(=O)/C=C/CN(C)C)ccc2F)c2cnn(-c3ccccc3)c21` (racemic) [Compound I-107] are 1000 to 3000 nM and 1000 to 3000 nM.
As to `CCN1C(=O)[C@@H](NC(=O)c2cccc(C(F)(F)F)c2)[C@H](c2cccc(CNC(=O)C3=CCN(C)C3)c2)c2cnn(-c3ccccc3)c21` [Compound I-54], the IC50 is at most 200 nM under setting [1] and 1000 to 3000 nM under setting [2].
Take `CCN1C(=O)[C@H](NC(=O)c2cccc(C(F)(F)F)c2)[C@@H](c2cccc(NC(=O)C#CCN3CCOCC3)c2)c2c(C)nn(-c3ccccc3)c21` (racemic) [Compound I-139, rac-N-((4R,5S)-7-ethyl-3-methyl-4-(3-(4-morpholinobut-2-ynamido)phenyl)-6-oxo-1-phenyl-4,5,6,7-tetrahydro-1H-pyrazolo[3,4-b]pyridin-5-yl)-3-(trifluoromethyl)benzamide]: the IC50 reads like this: under setting [1], 200 to 1000 nM; under setting [2], 1000 to 3000 nM.
`CCN1C(=O)[C@@H](NC(=O)c2cccc(C(F)(F)F)c2)[C@H](c2cncc(NC(=O)C3=CCC3)c2)c2cnn(-c3ccccc3)c21` [Compound I-319]: the IC50 by setting is: under setting [1], 200 to 1000 nM; under setting [2], 1000 to 3000 nM.
`C=C(CN1C[C@@H]2C[C@H]1CO2)C(=O)NCc1cccc([C@@H]2c3cnn(-c4ccccc4)c3N(CC)C(=O)[C@H]2NC(=O)c2nccc(C(F)(F)F)n2)c1` (mixture of isomers) [Compound I-160]: the IC50 reads like this: under setting [1], at most 200 nM; under setting [3], at most 200 nM.
Take `CCN1C(=O)[C@H](NC(=O)c2cccc(C(F)(F)F)c2)[C@@H](c2cccc(NC(=O)/C=C/CN(C)C)c2)c2c(CN(C)C)nn(-c3ccccc3)c21` (racemic) [Compound I-212, ˜{N}—[˜{rac}-(4˜{S},5˜{R})-3-[(dimethylamino)methyl]-7-ethyl-6-oxo-1-phenyl-4-[3-[[˜{rac}-(˜{E})-4-(dimethylamino)but-2-enoyl]amino]phenyl]-4,5-dihydropyrazolo[3,4-b]pyridin-5-yl]-3-(trifluoromethyl)benzamide]: the IC50 reads like this: under setting [1], at most 200 nM; under setting [2], 200 to 1000 nM.
